{"source": "patent US20230075584A1", "about": "“INTRANASAL ADMINISTRATION OF GLUTAMATE CARBOXYPEPTIDASE (GCP-II) INHIBITORS” (The Johns Hopkins University, priority 2015, published 2023)", "key": {"[1]": {"biological_target": "glutamate carboxypeptidase II (GCP-II) (Homo sapiens, UniProt Q04609)", "sequence (Q04609 whole entry, species assumed)": "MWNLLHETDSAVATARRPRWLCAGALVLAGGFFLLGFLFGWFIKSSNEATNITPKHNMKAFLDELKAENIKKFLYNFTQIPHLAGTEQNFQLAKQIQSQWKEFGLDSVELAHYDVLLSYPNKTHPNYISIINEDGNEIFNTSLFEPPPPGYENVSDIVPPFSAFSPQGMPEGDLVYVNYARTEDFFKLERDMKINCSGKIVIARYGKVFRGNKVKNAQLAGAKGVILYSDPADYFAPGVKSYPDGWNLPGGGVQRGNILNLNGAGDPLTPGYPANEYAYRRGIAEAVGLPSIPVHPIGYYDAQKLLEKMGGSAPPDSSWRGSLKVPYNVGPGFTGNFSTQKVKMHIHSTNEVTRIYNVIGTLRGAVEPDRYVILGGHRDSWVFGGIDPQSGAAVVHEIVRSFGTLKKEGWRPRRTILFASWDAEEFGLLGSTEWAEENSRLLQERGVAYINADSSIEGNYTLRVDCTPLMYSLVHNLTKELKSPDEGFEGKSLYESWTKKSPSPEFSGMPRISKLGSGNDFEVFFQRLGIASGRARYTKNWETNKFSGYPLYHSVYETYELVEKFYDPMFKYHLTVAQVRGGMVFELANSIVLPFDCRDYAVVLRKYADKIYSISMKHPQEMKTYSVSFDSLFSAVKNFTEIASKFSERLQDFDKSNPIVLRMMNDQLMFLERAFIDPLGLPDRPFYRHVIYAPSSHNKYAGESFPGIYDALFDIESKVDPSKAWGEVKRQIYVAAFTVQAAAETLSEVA", "conditions": "GCP-II inhibition, Table 1; read-out: Potency (IC50); cited from earlier work"}, "[2]": {"assay": "Brain concentrations 1 h after intranasal administration in rats (single time point)", "type": "in vivo", "conditions": "rat, 30 mg/kg i.n., 1 hr post dose; for concentration at 1 h: male, Wistar, in vivo, 30 mg/kg"}, "[3]": {"conditions": "purified enantiomers, intranasal", "experimental": "Rodent i.n. and i.p. dosing: Studies were conducted in male Wistar rats (6-8 weeks; weighing between 200 gm to 250 gm) obtained from Harlan® Laboratories (Indianapolis, Ind.) that were maintained in a controlled environment and allowed food and water ad libitum. Intranasal administrations were performed according to previously described methods with minor modifications. Briefly, rats were anesthetized with a 1-1.5 mL intraperitoneal (i.p.) dose of 10% chloral hydrate (approved under the protocol RA #13), and kept under anesthesia with additional chloral hydrate as needed throughout the entire experiment. To prevent drainage of nasally dosed solution, the nasal cavity was isolated from the respiratory and gastrointestinal tracts. An incision was made along the neck, and the trachea isolated and transected. The upper part was tied off with a 3-0 silk suture, and the lower part cannulated with PE240 tubing to aid air breathing. Rats were maintained lying on their back, and in this position, given 10 μL (375 mg/mL) of the experimental drug solution per nostril using a micro-syringe connected to 1.5 cm PE-10 tube. The total dose received was 30 mg/kg for each drug solution.\nBriefly, prior to extraction, frozen samples were thawed on ice. For plasma samples, 50 μL of the calibration standard or sample were transferred into silanized vials. For brain tissues, the samples were weighed in a 1.7 mL silanized vials to which 4 times the volume of methanol (dilution 1:5) was added. The tissues were stored in −20° C. for 1 h and then homogenized. The calibration curves were developed using plasma and brain from untreated animals as a matrix. For plasma, sample preparation involved a single liquid extraction by addition of 300 μL of methanol as extraction solution with internal standard, followed by vortexing for 30 s and then centrifugation at 12000×g for 10 min. Supernatant was transferred and evaporated to dryness at 40° C. under a gentle stream of nitrogen. For brain tissue, homogenized samples were vortexed and centrifuged as above, and 100 μL supernatant was mixed with 100 μL of internal standard in methanol, and then evaporated to dryness at 40° C. under a gentle stream of nitrogen. […] For derivatization, the residue was reconstituted with 100 μL of n-butanol with 3N HCl and samples were vortexed. The samples were heated at 60° C. in a shaking water bath for 30 min. At the end of 30 min, the derivatized samples were dried under a gentle stream of nitrogen. […] The samples were vortexed and centrifuged. Supernatant (75 μL) was transferred to a 250 μL polypropylene autosampler vial sealed with a Teflon cap and a volume of 10 μL was injected onto the ultral l performance liquid chromatography (UPLC) instrument for quantitative analysis using a temperature-controlled autosampler operating at 10° C.\nChromatographic analysis was performed using an Accela™ ultra high-performance system consisting of an analytical pump, and an autosampler coupled with TSQ Vantage mass spectrometer (Thermo Fisher Scientific Inc., Waltham Mass.). […] The mobile phase was composed of 0.1% formic acid in acetonitrile and 0.1% formic acid in H2O with gradient elution. The total run time for each analyte was 5.0 min."}, "[4]": {"conditions": "non-human primates; halted development; cited from earlier work"}, "[5]": {"assay": "Plasma and CSF exposure after i.n. administration in non-human primate", "conditions": "cynomolgus monkey, 30 min post dose", "description": "A male cynomolgus monkey (approximately 3.5 kg, non-drug naive) was housed in a stainless steel cage (size 30″ (76.2 cm) wide×31″ (78.74 cm) deep×31.5″ (80.01 cm) high) maintaining temperature of 64-84° F. (17.8° C.-28.9° C.), humidity of 30-70% with alternating 12-hour light/dark cycle as per the USDA Animal Welfare Act (9 CFR, Parts 1, 2, and 3).\nThe monkey was sedated with 45 mg of ketamine and 0.25 mg of midazolam given as an intramuscular injection prior to test article administration. Sedation was maintained through blood and cerebrospinal fluid (CSF) sample collections with ketamine/midazolam at a starting rate of 20 mg/kg/hr ketamine and 0.4 mg/kg/hr midazolam. […] The device was actuated for a period of 2 min in one nostril (depositing 100 μL). The nose piece was cleaned with a mist of air and then the same procedure was performed in the second nostril (100 μL). Total dose delivered was 100 mg. CSF sample (target of 50 μL) was obtained by an indwelling cannula placed in the intrathecal space at the cisterna magna at 0.5 h post dose. Blood was collected via venipuncture of the femoral vein at 0.5 h post dose and plasma was obtained by low speed centrifugation at 1500×g for 10 minutes. The plasma was flash-frozen on dry ice after separation. Plasma and CSF samples were stored in a freezer set at −70° C., until bioanalysis.\nStandard curves were generated in blank artificial CSF. Calibration curves were constructed in the range of 0.113-22.6 μg/mL. Samples were analyzed on Agilent QTOF mass spectrometer by LC/MS. Samples (20 μL) were injected and separated on an Agilent 1290 LC equipped with an Agilent Eclipse Plus C18 column (2.1×100 mm) packed with 1.8 micron stationary phase. The mobile phase consisted of 0.1% formic acid in water and 0.1% formic acid in acetonitrile with an isocratic elution at 2.5% organic. […] Calibration curves were generated with a correlation coefficient >0.99 in a similar manner as described above."}, "[6]": {"assay": "Pharmacokinetics of i.p. versus i.n. administered 2-PMPA in rat plasma and brain tissues", "type": "in vivo", "experimental": "For i.p. studies, 2-PMPA was administered as a single i.p. dose. All dosing solutions were prepared on the day of the experiment in 50 mM HEPES buffered saline, and pH adjusted to 7.4 before injection. At various time points following drug administration (0.16 h, 0.5 h, 1 h, 3 h, 5 h) post dose, animals (n=3 per time point, except 3 h n=2 animals) were euthanized with CO2, and blood samples were collected in heparinized microtubes by cardiac puncture and tissues (olfactory bulb, frontal cortex, and cerebellum) were dissected and immediately flash frozen (−80° C.). Plasma was prepared by centrifugation immediately after collection of blood samples. All samples were stored in −80° C. until bioanalysis.\nThe samples were vortexed and centrifuged.\nThe maximum plasma concentration (Cmax) and time to Cmax (Tmax) were the observed values. The area under the plasma concentration time curve (AUC) value was calculated to the last quantifiable sample (AUClast) by use of the log linear trapezoidal rule. The brain-to-plasma partition coefficients were calculated as a ratio of their AUCs (AUC0-t, brain/AUC0-t, plasma). The elimination half-life (t1/2) was determined by dividing 0.693 by λz."}, "GCP-II": {"biological_target": "T1, GCP-II (Rattus norvegicus, UniProt P70627)", "T1 construct": "from tissue; host or cells: rat brain (olfactory bulb, cortex, cerebellum), sonicated in Tris buffer, supernatant", "T1 sequence (P70627 whole entry)": "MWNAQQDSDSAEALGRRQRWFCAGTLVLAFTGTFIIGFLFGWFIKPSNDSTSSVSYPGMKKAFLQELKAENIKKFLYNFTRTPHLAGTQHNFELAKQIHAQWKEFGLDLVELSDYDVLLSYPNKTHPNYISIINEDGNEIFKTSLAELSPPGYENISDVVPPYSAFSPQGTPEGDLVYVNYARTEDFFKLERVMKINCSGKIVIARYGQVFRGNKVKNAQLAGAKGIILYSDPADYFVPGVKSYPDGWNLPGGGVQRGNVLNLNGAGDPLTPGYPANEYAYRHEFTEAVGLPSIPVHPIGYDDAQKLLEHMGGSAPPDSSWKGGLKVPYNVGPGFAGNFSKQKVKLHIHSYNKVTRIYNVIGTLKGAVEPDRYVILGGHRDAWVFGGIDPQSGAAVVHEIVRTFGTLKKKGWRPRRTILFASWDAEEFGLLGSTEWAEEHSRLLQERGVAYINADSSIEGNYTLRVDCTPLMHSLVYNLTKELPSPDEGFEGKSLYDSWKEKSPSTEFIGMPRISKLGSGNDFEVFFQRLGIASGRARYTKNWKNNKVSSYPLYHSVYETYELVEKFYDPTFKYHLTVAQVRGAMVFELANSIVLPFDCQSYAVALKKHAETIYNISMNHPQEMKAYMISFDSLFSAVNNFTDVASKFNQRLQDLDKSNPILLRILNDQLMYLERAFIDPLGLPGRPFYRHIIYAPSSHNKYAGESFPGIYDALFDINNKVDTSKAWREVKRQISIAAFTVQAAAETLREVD", "assay": "Ex vivo GCP-II enzymatic (NAAG hydrolyzing) activity in rodent brain tissue after i.n. administration", "experimental": "Rodent ex vivo GCP-II enzymatic activity: One half of the brain tissues collected following i.n. administration (lh post dose) was used to determine GCP-II NAAG hydrolyzing activity. In brief, tissues were weighed and immersed in 0.5 mL of ice-cold 50 mM Tris Buffer (pH 7.7 at RT). Each tissue was sonicated for 30-60 seconds using an ultrasonic cell disrupter. After a 2 minute spin at 13,000 g, supernatants were analyzed for protein content and NAAG-hydrolyzing activity measurements were performed as previously described (Rojas et al., 2012; Robinson et al., 1987)."}, "[7]": {"assay": "Pharmacokinetics of i.p. versus i.n. administered 2-PMPA in rat plasma and brain tissues", "type": "in vivo", "conditions": "30 mg/kg i.n.; for Kp: male, Wistar, other: intranasal, 30 mg/kg"}, "[8]": {"conditions": "ex vivo, 1 h after 30 mg/kg i.n., relative to untreated control rats"}}, "note": "Several values for one entry are separate records, joined by “and”; a condition that tells them apart may be missing. Equal values may be shown once. Entries after “also recorded” stand apart in the source; their conditions may differ. Read-outs that look alike come from different tables or passages of the source.", "data": [{"compound": "N-[N-[(S)-1,3-dicarboxypropyl]carbamoyl]-L-cysteine [DCMC]", "values": [{"measurement": "IC50", "setting": "[1]", "value": 3.1, "unit": "nM"}, {"measurement": "concentration in cerebellum", "setting": "[2]", "value": 0.20, "unit": "µg/g"}, {"measurement": "concentration in cortex", "setting": "[2]", "value": 2.03, "unit": "µg/g"}, {"measurement": "concentration in olfactory bulb", "setting": "[2]", "value": 2.12, "unit": "µg/g"}]}, {"compound": "O=C(O)CC[C@H](CP(=O)(O)O)C(=O)O", "note": "[S-2-PMPA]", "values": [{"measurement": "concentration in cerebellum", "setting": "[3]", "value": 2.51, "unit": "µg/g"}, {"measurement": "concentration in cortex", "setting": "[3]", "value": 10.4, "unit": "µg/g"}, {"measurement": "concentration in olfactory bulb", "setting": "[3]", "value": 28.5, "unit": "µg/g"}]}, {"compound": "O=C(O)CC[C@@H](CP(=O)(O)O)C(=O)O", "note": "[R-2-PMPA]", "values": [{"measurement": "concentration in cerebellum", "setting": "[3]", "value": 1.78, "unit": "µg/g"}, {"measurement": "concentration in cortex", "setting": "[3]", "value": 10.1, "unit": "µg/g"}, {"measurement": "concentration in olfactory bulb", "setting": "[3]", "value": 19.3, "unit": "µg/g"}]}, {"compound": "O=C(O)CCC(CCCS)C(=O)O", "note": "(stereo not shown) [2-MPPA, 2-(3-mercaptopropyl)pentane-dioic acid]", "values": [{"measurement": "toxicity observed in primate studies", "setting": "[4]", "value": "membranoproliferative glomerular nephritis; also recorded: immunological toxicities"}]}, {"compound": "O=C(O)CCC(CP(=O)(O)O)C(=O)O", "note": "(racemic) [2-PMPA, 2-(phosphonomethyl)-pentanedioic acid]", "values": [{"measurement": "CSF concentration versus the IC50", "setting": "[5]; i.n.", "value": "> 100", "unit": "fold"}, {"measurement": "concentration at 0.5 h", "setting": "[5]; male, CSF, other: intranasal, 100 mg, CSF concentration, 100 mg total i.n.", "value": "320 ng/mL and ~1.5 µM"}, {"measurement": "share of 2-PMPA reaching the brain accounted from the plasma 2-PMPA", "setting": "[6]; i.n. route, pooled plasma and brain data from i.p. and i.n.", "value": 2, "unit": "%"}, {"measurement": "Kp", "setting": "[6]; male, Wistar, rat, brain, intraperitoneal, 30 mg/kg, following systemic administration, read-out: brain-to-plasma ratio", "value": "≤ 0.02"}, {"measurement": "fold improvement in brain-to-plasma ratio, intranasal versus intraperitoneal", "setting": "[6]; male, Wistar, rat, brain, other: intranasal, 30 mg/kg, intranasal versus other route, read-out: improvement in the brain-to-plasma ratio when administered through an intranasal route", "value": 100}, {"measurement": "Kp", "setting": "[6]; male, Wistar, rat, olfactory bulb, cortex and cerebellum, ip, 30 mg/kg, rat, 30 mg/kg i.p., olfactory bulb, cortex and cerebellum, read-out: brain tissue to plasma ratio based on AUCs (AUC0-t, brain/AUC0-t, plasma)", "value": "< 0.02"}, {"measurement": "AUC0-t cerebellum", "setting": "[6]; rat, 30 mg/kg i.n.", "value": 5.27, "unit": "µg·h/g"}, {"measurement": "AUC0-t cortex", "setting": "[6]; rat, 30 mg/kg i.n.", "value": 37.7, "unit": "µg·h/g"}, {"measurement": "AUC0-t olfactory bulb", "setting": "[6]; rat, 30 mg/kg i.n.", "value": 78.1, "unit": "µg·h/g"}, {"measurement": "plasma Cmax", "setting": "[6]; rat, 30 mg/kg i.n.", "value": 24700, "unit": "ng/mL"}, {"measurement": "AUC0-t cerebellum", "setting": "[6]; rat, 30 mg/kg i.p.", "value": 0.80, "unit": "µg·h/g"}, {"measurement": "AUC0-t cortex", "setting": "[6]; rat, 30 mg/kg i.p.", "value": 0.84, "unit": "µg·h/g"}, {"measurement": "AUC0-t olfactory bulb", "setting": "[6]; rat, 30 mg/kg i.p.", "value": 1.15, "unit": "µg·h/g"}, {"measurement": "AUC0-t plasma", "setting": "[6]; rat, 30 mg/kg i.p.", "value": 50300, "unit": "ng·h/mL"}, {"measurement": "apparent clearance", "setting": "[6]; rat, 30 mg/kg i.p.", "value": 9.71, "unit": "mL/min/kg"}, {"measurement": "apparent volume of distribution", "setting": "[6]; rat, 30 mg/kg i.p.", "value": 0.82, "unit": "L/kg"}, {"measurement": "peak plasma concentration (Cmax)", "setting": "[6]; rat, 30 mg/kg i.p.", "value": 49500, "unit": "ng/mL"}, {"measurement": "elimination t1/2", "setting": "[6]; rat, 30 mg/kg i.p., plasma", "value": 59.4, "unit": "min"}, {"measurement": "inhibition of GCP-II activity in cerebellum", "setting": "GCP-II; [8]", "value": "70%±5%"}, {"measurement": "inhibition of GCP-II activity in cortex", "setting": "GCP-II; [8]", "value": 100, "unit": "%"}, {"measurement": "inhibition of GCP-II activity in olfactory bulb", "setting": "GCP-II; [8]", "value": 100, "unit": "%"}, {"measurement": "inhibition of brain GCP-II enzymatic activity ex-vivo", "setting": "GCP-II; i.n. administration, summary statement", "value": "complete inhibition"}, {"measurement": "plasma AUC0-t", "setting": "[7]", "value": 52300, "unit": "ng·h/mL"}, {"measurement": "Kp", "setting": "[7]; cerebellum, read-out: brain tissue to plasma ratio based on AUCs, cerebellum", "value": 0.1}, {"measurement": "Kp", "setting": "[7]; cortex, read-out: brain tissue to plasma ratio based on AUCs, cortex", "value": 0.71}, {"measurement": "Kp", "setting": "[7]; olfactory bulb, read-out: brain tissue to plasma ratio based on AUCs, olfactory bulb", "value": 1.49}, {"measurement": "concentration at 1 h", "setting": "[2]; read-out: concentration in cerebellum", "value": 2130, "unit": "ng/g"}, {"measurement": "concentration at 1 h", "setting": "[2]; read-out: concentration in cortex", "value": 10300, "unit": "ng/g"}, {"measurement": "concentration at 1 h", "setting": "[2]; read-out: concentration in olfactory bulb", "value": 31200, "unit": "ng/g"}]}]}
